Patent US12290533B2, “Extracellular vesicles and methods of using” (NUtech Ventures, priority 2018, dated 2025)
“Also recorded” adds a separate entry of the source.

Assays:
[1] = tested on: human umbilical vein endothelial cells (HUVEC); assay: Uptake of fluorophore-labeled cow's milk exosomes into HUVECs; format: cell-based
[2] = tested on: human colon carcinoma Caco-2 cells; assay: Uptake of FM 4-64-labeled bovine milk exosomes into Caco-2 cells; settings: for effect on exosome transport: milk exosomes treated with protease
Procedure: Exosomes were isolated from bovine milk by differential centrifugation and authenticated as recommended by International Society for Extracellular Vesicles. […] Controls were incubated with solvent. Exosomes were labeled with FM4-64, and unlabeled fluorophore was removed. […] Transport kinetics were modelled using the Michaelis-Menten equation. One-way ANOVA and Bonferroni's multiple comparison were used for statistical analyses.
Caco-2 cells and IEC-6 cells were seeded at a density of 20,000 and 7000 cells/well, respectively, in 96-well plates, and allowed to adhere for 48 h, when cells were 75% confluent. The exosomes were labeled with the fluorophore, FM 4-64 (Molecular Probes). One microliter of a stock solution of FM 4-64 (5.9 mmol/L) was added to 1 mL of exosome suspension and incubated for 15 min at 37° C., and excess FM 4-64 was removed by ultracentrifugation at 120,000 3 g at 4° C. for 90 min. Transport studies were conducted using FM4-64-labeled exosomes using 3-110 mg of exosomal protein/well (Caco-2 cells) or 27-652 mg of exosomal protein/well (IEC-6 cells) and incubating cells for various periods of time to assess saturation kinetics; blanks were created using solvent. Assays were calibrated by quantifying the fluorescence of a known mass of exosomes labeled with FM 4-64. Exosome uptake was analyzed by measuring the cell fluorescence at 515 (excitation) and 640 nm (emission) using a Biotek FLx800 plate reader (BioTek Instru-ments). Fluorescence readings were corrected for cell autofluorescence by subtracting signals measured in cells incubated with exosome-depleted media. Transport kinetics was modeled using the Michaelis-Menten equation and nonlinear regression; modeling was conducted using GraphPad Prism 6.0 (GraphPad Software). […] Subsequent transport studies were conducted using incubation times of 8 hours for Caco-2 cells (FIG. 34B).
Transport kinetics was modeled using the Michaelis-Menten equation.

[3] = Bioavailability and distribution of fluorophore-labeled RNA and microRNA cargos in bovine milk exosomes; format: in vivo, Balb/c mice; settings: for tissue distribution of fluorophore-labeled microRNA transfected into milk exosomes: oral gavage, 6 hours
Procedure: Exosomes were isolated from bovine milk using ultracentrifugation.
Labeling of exosomes and RNAs with synthetic fluorophores. […] All exosome preparations were utilized within 2 hours.

[4] = Bovine milk exosomes and miRNAs in embryos and placentas of pregnant mice at E16.5; format: in vivo
Description: The bioavailability of bovine milk exosomes and miRNAs in fetal circulation of pregnant mice was examined. DiR-labelled bovine milk exosomes (or unlabeled control bovine milk exosomes) were adminstered to pregnant mice at embryonic day 16.5 (E16.5) to embryos and placentas. […] Three independent experiments per each treatment and control.

[5] = tested on: rat small intestinal IEC-6 cells; assay: Uptake of FM 4-64-labeled bovine milk exosomes into IEC-6 cells; format: cell-based; settings: exosomes treated with 0.105 mMol/L trypsin for 30 mins
[6] = mouse, in vivo
Procedure: Exosomes were isolated from bovine milk using ultracentrifugation. Exosome membranes were labeled using the fluorophore, DiR, as described elsewhere herein. […] Identity, integrity, fine dispersion, and count of exosomes were assessed using transmission electron microscopy, western blots, and nanoparticle tracker (not shown). Exosomes were administered orally by gavage (1×10^12 exosomes/g) in BALB/c mice. Absorption and distribution of exosomes and their cargos was monitored at timed intervals for up to 24 h using an iBox® Small Animal Imaging system and LiCor Odyssey CLx. At timed intervals, mice were euthanized and various tissues were excised and collected for densitometry analysis using VisionWorks®LS and Image Studio software.
Studies were conducted in female Balb/c mice (Jackson Laboratory, stock number 000651), ages 8 to 20 weeks, unless noted otherwise.
Exosomes were labeled with the lipophilic fluorophore 1,1-dioctadecyl-3,3,3,3-tetrametylindotricarbocyanine iodide (DiR) as described elsewhere (see, e.g., Wiklander et al., J. Extracell. Vesicles 4:26316 (2015)). […] Free dyes and extra-exosomal synthetic microRNAs were removed by two PBS washes (120,000×g for 60 minutes), and 1×10^12 exosomes were administered per g body weight in a volume of less than 150 μl. […] All exosome preparations were utilized within 2 hours.

Molecule: O=C[C@H](O)[C@@H](O)[C@@H](O)[C@H](O)CO [D-galactose]
- effect of carbohydrate competitor on exosome uptake ([1]; 150 mmol/L, pretreated 30 min): caused a significant decrease in exosome uptake

Molecule: C=C1[C@@H](C)[C@H]2[C@H](Cc3ccccc3)NC(=O)[C@]23[C@H](OC(C)=O)/C=C/[C@@](C)(O)C(=O)[C@@H](C)C/C=C/[C@H]3[C@@H]1O [cytochalasin D]
- decrease of transport rates compared with controls ([1]; exosomes treated with proteinase K, or transport in presence of D-galactose, excess unlabeled exosomes or cytochalasin D): 50%

Molecule: Glu-C: serine protease cleaving at glutamic acid and aspartic acid residues
- effect on exosome transport [2]: significant decrease in exosome transport into CaCo-2 cells

Molecule: MiR-34a: synthetic IRDye-labeled microRNA transfected into bovine milk exosomes; uggcagugucuuagcugguugu, SEQ ID NO: 8 (UGGCAGUGUCUUAGCUGGUUGU; IRDye fluorophore label, position not given here, synthetic)
- tissue distribution of fluorophore-labeled microRNA transfected into milk exosomes [3]: brain

Molecule: miR-30d: microRNA loaded into bovine milk exosomes; uguaaacauccccgacuggaagcu, SEQ ID NO: 13 (UGUAAACAUCCCCGACUGGAAGCU; listed as RNA, further chemistry not given here)
- presence in embryo and placenta [4]: present in both embryo and placenta

Molecule: miR-320a: synthetic IRDye-labeled microRNA transfected into bovine milk exosomes; aaaagcuggguugagagggcga, SEQ ID NO: 10 (AAAAGCUGGGUUGAGAGGGCGA; IRDye fluorophore label, position not given here, synthetic)
- tissue distribution of IRDye-labeled microRNA transfected into milk exosomes ([3]; 3 hours after intravenous injection): accumulated primarily in liver with small amounts being detectable in kidneys, lungs and spleen 3 hours after intravenous injection
- apparent bioavailability ([3]; hepatic densitometry 3 hours after intravenous injection vs 6 hours after oral gavage): 25.4±8.7%
- tissue distribution of fluorophore-labeled microRNA transfected into milk exosomes [3]: accumulated primarily in liver, spleen and kidneys 6 hours after oral gavage

Molecule: miR-375: synthetic 5ATT0633N-labeled microRNA, with or without quencher 3IAbRQSp, transfected into milk exosomes; uuuuguucguucggcucgcguga, SEQ ID NO: 11 (UUUUGUUCGUUCGGCUCGCGUGA; listed as RNA, further chemistry not given here)
- signal of microRNA conjugated to fluorophore and quencher ([3]; administered orally, signal indicates degradation): only a minimal signal was detected in heart and spleen
- tissue distribution of fluorophore-labeled microRNA transfected into milk exosomes [3]: the signal localized primarily to the intestines, with minor signal being detectable in kidneys, brain and liver; also recorded: accumulated in brain, liver, kidneys and intestinal mucosa in mice

Molecule: trypsin
- exosome uptake [5]: 82%+8%
- tissue accumulation of exosomes depleted of surface proteins [6]: reduced accumulation of exosomes in the liver and lungs after intravenous injection
- transport rates (Vmax) ([2]; exosomes treated with protease, control 88±1, cell type not named at the place): 40±0.6 arbitrary units
- effect on exosome transport [2]: significant decrease in exosome transport into CaCo-2 cells
